From US20080227728A1, “Therapeutic Agent for the Treatment of a Condition Associated with Peripheral Vascular Disease” (LABORATORIOS BELMAC, S.A., priority 2005, published 2008)

Test system: individuals showing problems related to venous insufficiency
Assay: Administration of oleuropein to patients suffering from venous insufficiency (general statements)
Details: compared with other drugs known for peripheral vascular disease symptoms

## C/C=C1/[C@H](O[C@@H]2O[C@H](CO)[C@@H](O)[C@H](O)[C@H]2O)OC=C(C(=O)OC)[C@H]1CC(=O)OCCc1ccc(O)c(O)c1 [oleuropein]
  side effects: do not show significant side effects
